Consider three molecules from paper PMC8793051 (ACS Omega, 2022).

Structures are written as SMILES.

One experiment deals with OVCAR-3. As to the kind of experiment: NCI-60 SRB growth assay. The class given is cell-based, human. To be noted: for GI50 / CC50: Homo sapiens; for GI50 / TGI: OVCAR-3; for CC50: OVCAR-3, read-out: LC50. Background: The SRB assay estimates cell density from bound dye.
The subject of the next experiment is SK-OV-3. The experiment can be described thus: NCI-60 SRB growth assay. The class given is cell-based, human. The settings on record: for GI50 / CC50: Homo sapiens; for GI50 / TGI: SK-OV-3; for CC50: SK-OV-3, read-out: LC50.
Experiment [1] concerns oligo-1: d(CGCGAATTCGCG)2. The experiment can be described thus: Fluorescence titration. The class given is binding. To be noted: 20 °C, pH 7.2.
A further experiment has as its system SNB-19. As to the kind of experiment: NCI-60 SRB growth assay. The settings on record: for CC50: SNB-19, read-out: LC50. The class given is cell-based, human.
A further experiment relates to SK-MEL-5. The experiment can be described thus: NCI-60 SRB growth assay. The class given is cell-based, human. The settings on record: for GI50 / CC50: Homo sapiens; for GI50 / TGI: SK-MEL-5; for CC50: SK-MEL-5, read-out: LC50.
The next experiment concerns 786-0. The experiment can be described thus: NCI-60 SRB growth assay. The class given is cell-based, human. The settings on record: for TGI: 786–0; for GI50 / CC50: Homo sapiens; for GI50: 786-0; for CC50: 786-0, read-out: LC50.
A further experiment relates to TK-10. As to the kind of experiment: NCI-60 SRB growth assay. The class given is cell-based, human. To be noted: for GI50 / CC50: Homo sapiens; for GI50 / TGI: TK-10; for CC50: TK-10, read-out: LC50.
The subject of another experiment is MDA-MB-468. The experiment can be described thus: NCI-60 SRB growth assay. The class given is cell-based, human. To be noted: for GI50 / TGI: MDA-MB-468.
Another experiment concerns MDA-MB-231 cells. The experiment can be described thus: Cell cycle analysis by flow cytometry. The class given is cell-based, human. The settings on record: at 6 and 12 h; control 1–2%. Background: In flow cytometry, cells or beads pass a laser one at a time.

The term GI50 denotes the concentration at which growth is held to half of that of the control. Low readings indicate greater sensitivity of the cells, high ones lower sensitivity of the cells. What is called TGI is the concentration at which net growth stops. A high value points to lower sensitivity of the cells. Take `CCCCN1CCN(c2ccc3[nH]c(-c4ccc5[nH]c(-c6ccc(OCC)c(OCC)c6)nc5c4)nc3c2)CC1` [12a, 5-(4-Butylpiperazin-1-yl)-2-(2-(3,4-diethoxyphenyl)-1H-benzo[d]imidazol-5-yl)-1H-benzo[d]imidazole]: the GI50 is 0.35 µM with OVCAR-3; 1.33 µM in the experiment on SK-OV-3; 1.22 µM with SNB-19 (Homo sapiens, SNB-19); 1.09 µM in the experiment with SK-MEL-5; 1.41 µM in the experiment on 786-0; 1.66 µM in the experiment with TK-10. Also, in the experiment with MDA-MB-468 (Homo sapiens), the GI50 is 1.27 µM. Besides, the CC50 was 2.92 µM with OVCAR-3; 8.01 µM in the experiment with SK-OV-3; 5.58 µM in the experiment with SNB-19 (Homo sapiens); 9.22 µM with SK-MEL-5; 5.72 µM in the experiment on 786-0; over 100 µM in the experiment with TK-10. The TGI in the experiment on OVCAR-3 amounted to 0.85 µM; with SK-OV-3, 3.27 µM; in the experiment on SNB-19 (SNB-19), 2.61 µM; with SK-MEL-5, 3.16 µM; with 786-0, 2.84 µM; in the experiment with TK-10, 5.17 µM. In the experiment on MDA-MB-468, the total growth inhibition concentration (TGI) worked out at 3.09 µM. Moreover, the “Ka binding affinity with oligo-1” value in [1] is 1 × 10^7 M^–1.
For `CCCN1CCN(c2ccc3[nH]c(-c4ccc5[nH]c(-c6ccc(OCC)c(OCC)c6)nc5c4)nc3c2)CC1` [11a, 2-(2-(3,4-Diethoxyphenyl)-1H-benzo[d]imidazol-5-yl)-5-(4-propylpiperazin-1-yl)-1H-benzo[d]imidazole], the GI50 with OVCAR-3 was 0.26 µM; in the experiment with SK-OV-3, 2.1 µM; in the experiment on SK-MEL-5 it was 0.63 µM; with 786-0, 1.13 µM; with TK-10, 1.22 µM; in the experiment with MDA-MB-468 (Homo sapiens), 0.43 µM. For the same molecule, the CC50 in the experiment with OVCAR-3 is 1.8 µM; in the experiment on SK-OV-3, 9.9 µM; in the experiment on SNB-19 (Homo sapiens), 5.6 µM; with SK-MEL-5, 4.6 µM; in the experiment with 786-0 it was 5.54 µM; in the experiment on TK-10, 2.47 µM. Moreover, in the experiment with MDA-MB-468 (Homo sapiens, MDA-MB-468, read-out: LC50), the CC50 was 7.07 µM. Besides, the TGI was determined as 0.58 µM with OVCAR-3; 10.2 µM in the experiment on SK-OV-3; 2.18 µM in the experiment on SNB-19 (SNB-19); 2.01 µM in the experiment with SK-MEL-5; 2.50 µM with 786-0; 4.9 µM with TK-10. Further, the TGI with HL-60(TB) came out at 2.7 µM; in the experiment with MDA-MB-468, 1.82 µM. In addition, the “Ka binding affinity with oligo-1” value in experiment [1] is 3 × 10^7 M^–1.
Regarding `CCCCN1CCN(c2ccc3[nH]c(-c4ccc5[nH]c(-c6ccc(C(F)(F)F)cc6)nc5c4)nc3c2)CC1` [12b, 5-(5-(4-Butylpiperazin-1-yl)-1H-benzo[d]imidazol-2-yl)2(4(trifluoromethyl)phenyl)-1H-benzo[d]imidazole], the GI50 with OVCAR-3 stood at 0.21 µM; in the experiment with SK-MEL-5, 1.6 µM; with 786-0 it was 1.47 µM; in the experiment on MDA-MB-468 (Homo sapiens), 1.66 µM. Further, the CC50 in the experiment on OVCAR-3 is 0.73 µM; in the experiment with SK-MEL-5, 6.2 µM. The TGI is 0.4 µM in the experiment on OVCAR-3; 3.2 µM in the experiment with SK-MEL-5; 3.04 µM with 786-0; 2.8 µM in the experiment on HL-60(TB); 3.34 µM in the experiment with MDA-MB-468. Also, the “Ka binding affinity with oligo-1” value in experiment [1] is 1 × 10^7 M^–1. Also, in the experiment with MDA-MB-231 cells, the “cells in the sub-G1 phase” value came to 7.4%.
